Reference: PubChem BioAssay AID330 (DTP/NCI, 2004)
“And” between values parts separate entries of the source, which are not always exact repeats. Identical values can stand only once. Toxic doses and inconclusive results are not listed. Peptide text beside a SMILES is read from it.

Tested on: P388 leukemia ip, CD2F1 mice, survival T/C
Experiment: NCI In Vivo Anticancer Drug Screen. Data for tumor model P388 Leukemia (intraperitoneal) in CD2F1 (CDF1) mice
Conditions: endpoint: median survival time, higher = longer survival
Method in brief: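 Mice carrying the transplanted tumor received test compound or vehicle. Survival was recorded in each group, and the value is the treated-group measurement divided by that of the vehicle-treated control group.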

[1] = dose: 50.0 mg/kg/injection, schedule: Q01DX005 (ip), vehicle: saline with Tween-80
[2] = dose: 100.0 mg/kg/injection, schedule: Q01DX005 (ip), vehicle: saline with Tween-80
[3] = dose: 200.0 mg/kg/injection, schedule: Q01DX005 (ip), vehicle: saline with Tween-80
[4] = dose: 12.5 mg/kg/injection, schedule: Q01DX009 (ip), vehicle: saline
[5] = dose: 25.0 mg/kg/injection, schedule: Q01DX009 (ip), vehicle: saline
[6] = dose: 50.0 mg/kg/injection, schedule: Q01DX009 (ip), vehicle: saline
[7] = dose: 6.25 mg/kg/injection, schedule: Q01DX009 (ip), vehicle: Klucel (hydroxypropylcellulose) (HPC)

`Cc1ccc(N=CN(C)Sc2ccc(C(C)(C)C)cc2)c(C)c1` was tested, and the T/C (dose: 50.0 mg/kg/injection, schedule: Q01DX009 (ip), vehicle: Klucel (hydroxypropylcellulose) (HPC)) was 103 % of control and the T/C (dose: 100.0 mg/kg/injection, schedule: Q01DX009 (ip), vehicle: Klucel (hydroxypropylcellulose) (HPC)) was 117 % of control.
For `C/C(=N\N)c1cnc(NN)nc1C`, the T/C (dose: 7.5 mg/kg/injection, schedule: Q01DX005 (ip), vehicle: saline) was 106 % of control and the T/C (dose: 15.0 mg/kg/injection, schedule: Q01DX005 (ip), vehicle: saline) was 103 % of control.
For `NC(Cc1cnc[nH]1)C(=O)NC(CO)C(=O)O` (stereo not drawn) (H-His-Ser-OH; configuration not given here), the T/C (dose: 60.0 mg/kg/injection, schedule: Q01DX005 (ip), vehicle: saline) was 96 % of control, the T/C (dose: 120.0 mg/kg/injection, schedule: Q01DX005 (ip), vehicle: saline) was 99 % of control and the T/C (dose: 240.0 mg/kg/injection, schedule: Q01DX005 (ip), vehicle: saline) was 100 % of control.
For `C=Cc1ccccc1N/N=C(\Cl)C(=O)OCC`, the T/C (dose: 100.0 mg/kg/injection, schedule: Q04DX002 (ip), vehicle: saline with Tween-80) was 108 % of control and the T/C (dose: 200.0 mg/kg/injection, schedule: Q04DX002 (ip), vehicle: saline with Tween-80) was 113 % of control.
With `CCO/C(C)=C\C(=O)O` the T/C [1] was 98 % of control, the T/C [2] was 97 % of control and the T/C [3] was 97 % of control.
In the case of `Clc1ccc2ccc3ccccc3c2n1`, the T/C [4] is reported as 101 % of control, the T/C [5] is reported as 102 % of control and the T/C [6] is reported as 101 % of control and 94 % of control.
With `CCOC(=O)C1(C(=O)OCC)N=C(c2ccccc2)C=C1c1ccccc1` the T/C (dose: 50.0 mg/kg/injection, schedule: Q01DX009 (ip), vehicle: saline with Tween-80) was 100 % of control, the T/C (dose: 100.0 mg/kg/injection, schedule: Q01DX009 (ip), vehicle: saline with Tween-80) was 98 % of control and the T/C (dose: 200.0 mg/kg/injection, schedule: Q01DX009 (ip), vehicle: saline with Tween-80) was 94 % of control.
`Nc1[nH]c(=O)nc2sc3ccccc3c12` was tested, and the T/C [1] was 102 % of control, the T/C [2] was 105 % of control and the T/C [3] was 102 % of control.
In the case of `CNC(=S)NNC(=O)C(Cc1ccc([N+](=O)[O-])cc1)C(=O)NNC(=S)NC`, the T/C (dose: 100.0 mg/kg/injection, schedule: Q04DX002 (ip), vehicle: saline) is reported as 98 % of control, the T/C (dose: 200.0 mg/kg/injection, schedule: Q04DX002 (ip), vehicle: saline) is reported as 98 % of control and the T/C (dose: 400.0 mg/kg/injection, schedule: Q04DX002 (ip), vehicle: saline) is reported as 90 % of control.
`CC(=O)Nc1ccc(N=Nc2c(C)nn(C(=N)N)c2C)cc1` was tested, and the T/C (dose: 6.25 mg/kg/injection, schedule: Q01DX009 (ip), vehicle: saline) was 100 % of control and 103 % of control, the T/C [4] was 108 % of control and 109 % of control and 93 % of control and the T/C [5] was 114 % of control. The T/C [6] was 123 % of control, the T/C (dose: 50.0 mg/kg/injection, schedule: Q04DX003 (ip), vehicle: saline) was 98 % of control and the T/C (dose: 100.0 mg/kg/injection, schedule: Q04DX003 (ip), vehicle: saline) was 110 % of control. The T/C (dose: 200.0 mg/kg/injection, schedule: Q04DX003 (ip), vehicle: saline) was 122 % of control and the T/C (dose: 300.0 mg/kg/injection, schedule: Q04DX003 (ip), vehicle: saline) was 121 % of control.
For `O=c1[nH]cc(N=Cc2ccccc2F)c(=O)[nH]1`, the T/C (dose: 50.0 mg/kg/injection, schedule: Q01DX009 (ip), vehicle: suspension in saline) was 92 % of control, the T/C (dose: 100.0 mg/kg/injection, schedule: Q01DX009 (ip), vehicle: suspension in saline) was 100 % of control and the T/C (dose: 200.0 mg/kg/injection, schedule: Q01DX009 (ip), vehicle: suspension in saline) was 96 % of control.
In the case of `Cc1ccc(NCCC2CCCN3CCCCC23)c2c(=O)c3ccccc3sc12` (centres undefined), the T/C (dose: 12.5 mg/kg/injection, schedule: Q01DX005 (ip), vehicle: distilled water + Tween-80) is reported as 100 % of control and the T/C (dose: 25.0 mg/kg/injection, schedule: Q01DX005 (ip), vehicle: distilled water + Tween-80) is reported as 91 % of control.
`N#CC(C#N)=NNc1c(Br)cc(Cl)cc1Br` was tested, and the T/C (dose: 1.56 mg/kg/injection, schedule: Q01DX009 (ip), vehicle: Klucel (hydroxypropylcellulose) (HPC)) was 104 % of control, the T/C (dose: 3.12 mg/kg/injection, schedule: Q01DX009 (ip), vehicle: Klucel (hydroxypropylcellulose) (HPC)) was 105 % of control and the T/C [7] was 116 % of control and 97 % of control.
In the case of `C=C(C)C(=O)O[C@@H]1C/C(C)=C\[C@H](OC(C)=O)C[C@](C)(O)/C=C2/OC(=O)C(COC(C)=O)=C21`, the T/C (dose: 5.5 mg/kg/injection, schedule: Q01DX005 (ip), vehicle: Klucel (hydroxypropylcellulose) (HPC)) is reported as 105 % of control and 110 % of control, the T/C (dose: 11.0 mg/kg/injection, schedule: Q01DX005 (ip), vehicle: Klucel (hydroxypropylcellulose) (HPC)) is reported as 103 % of control and 109 % of control and the T/C (dose: 22.0 mg/kg/injection, schedule: Q01DX005 (ip), vehicle: Klucel (hydroxypropylcellulose) (HPC)) is reported as 122 % of control.
With `CC(C)N=C(N)/N=C(\N)Nc1ccc2ccc3ccccc3c2c1` the T/C [7] was 105 % of control, the T/C (dose: 12.5 mg/kg/injection, schedule: Q01DX009 (ip), vehicle: Klucel (hydroxypropylcellulose) (HPC)) was 113 % of control and the T/C (dose: 25.0 mg/kg/injection, schedule: Q01DX009 (ip), vehicle: Klucel (hydroxypropylcellulose) (HPC)) was 103 % of control.
With `CC(O)CN(CCN(CC(C)O)CC(C)O)CC(C)O` (centres undefined) the T/C (dose: 50.0 mg/kg/injection, schedule: Q01DX005 (ip), vehicle: saline) was 105 % of control, the T/C (dose: 100.0 mg/kg/injection, schedule: Q01DX005 (ip), vehicle: saline) was 103 % of control and the T/C (dose: 200.0 mg/kg/injection, schedule: Q01DX005 (ip), vehicle: saline) was 103 % of control.
With `O=C(NC(Cc1ccc(O)cc1)C(=O)NC(Cc1c[nH]c2ccccc12)C(=O)O)OCc1ccccc1` (centres undefined) the T/C [1] was 106 % of control, the T/C [2] was 103 % of control and the T/C [3] was 106 % of control.
In the case of `CCN(CC)CCCC(C)N1CC2CCCCC2C1` (centres undefined), the T/C [1] is reported as 106 % of control, the T/C [2] is reported as 108 % of control and the T/C [3] is reported as 107 % of control.
For `C=C(C)CN1C(=O)C(C)S/C1=N/N=C1/SCC(=O)N1C` (centres undefined), the T/C (dose: 62.5 mg/kg/injection, schedule: Q01DX009 (ip), vehicle: saline) was 99 % of control and the T/C (dose: 125.0 mg/kg/injection, schedule: Q01DX009 (ip), vehicle: saline) was 98 % of control.
`Cc1cc(C(=O)NN)c(C#N)c(=O)[nH]1` was tested, and the T/C (dose: 100.0 mg/kg/injection, schedule: Q01DX009 (ip), vehicle: saline) was 100 % of control, the T/C (dose: 200.0 mg/kg/injection, schedule: Q01DX009 (ip), vehicle: saline) was 109 % of control and the T/C (dose: 400.0 mg/kg/injection, schedule: Q01DX009 (ip), vehicle: saline) was 90 % of control.
In the case of `COC(=O)C(Cc1ccccc1)NCCNC(C)=O` (centres undefined), the T/C (dose: 100.0 mg/kg/injection, schedule: Q04DX003 (ip), vehicle: saline with Tween-80) is reported as 95 % of control and the T/C (dose: 200.0 mg/kg/injection, schedule: Q04DX003 (ip), vehicle: saline with Tween-80) is reported as 95 % of control.
With `COc1cccc(C2SCC(=O)N2c2nncs2)c1OC` (centres undefined) the T/C (dose: 60.0 mg/kg/injection, schedule: Q01DX005 (ip), vehicle: Klucel (hydroxypropylcellulose) (HPC)) was 106 % of control, the T/C (dose: 120.0 mg/kg/injection, schedule: Q01DX005 (ip), vehicle: Klucel (hydroxypropylcellulose) (HPC)) was 95 % of control and the T/C (dose: 240.0 mg/kg/injection, schedule: Q01DX005 (ip), vehicle: Klucel (hydroxypropylcellulose) (HPC)) was 98 % of control.
With `CCC(=O)NC1=C(Cl)C(=O)C(Cl)=C(Cl)C1=O` the T/C (dose: 3.13 mg/kg/injection, schedule: Q01DX009 (ip), vehicle: saline with Tween-80) was 111 % of control and the T/C (dose: 6.25 mg/kg/injection, schedule: Q01DX009 (ip), vehicle: saline with Tween-80) was 103 % of control.
In the case of `COC(=O)c1cc(-c2ccc([N+](=O)[O-])cc2)n2c(N)nnc2n1`, the T/C (dose: 60.0 mg/kg/injection, schedule: Q01DX005 (ip), vehicle: saline with Tween-80) is reported as 92 % of control and the T/C (dose: 120.0 mg/kg/injection, schedule: Q01DX005 (ip), vehicle: saline with Tween-80) is reported as 86 % of control.
In the case of `O=C(Nc1cccc2c1C(=O)c1cccc(Nc3ccc(NC(=O)c4ccccc4)c4c3C(=O)c3ccccc3C4=O)c1C2=O)c1ccccc1`, the T/C [1] is reported as 95 % of control, the T/C [2] is reported as 89 % of control and the T/C [3] is reported as 93 % of control.
`N#Cc1c(NC(=O)Nc2cc(C(F)(F)F)ccc2Cl)sc(=S)c2c1CCCC2` was tested, and the T/C [1] was 100 % of control and the T/C [2] was 103 % of control.
